In PMC5513091, “A novel Alzheimer’s disease drug candidate targeting inflammation and fatty acid metabolism” (Alzheimer's Research & Therapy, 2017):

System: plasma metabolites
Assay: Metabolomic analysis of plasma
Format: in vivo, mice
Method: Metabolomic analyses were conducted at Metabolon (Durham, NC, USA) as described previously. For statistical analyses and data display, any missing values were assumed to be below the limits of detection and imputed with the compound minimum (minimum value imputation). An estimate of the FDR (Q value) was calculated to take into account the multiple comparisons that normally occur in metabolomics-based studies, with Q < 0.05 used as an indication of high confidence in a result. The MetaboAnalyst tool was used to generate heat maps.

[1] = AD mice fed CAD-31 200 ppm 3 months vs AD
[2] = WT control mice fed CAD-31 200 ppm 3 months vs control

Compound: Cc1ccc(N(/N=C/c2cccc(OC(F)(F)F)c2)C(=O)C(F)(F)F)c(C)c1 [CAD-31]
- 1,2-dipalmitoyl-GPC (16:0/16:0) Fold Change AD+31/AD [1]: 1.12
- 1-arachidonoyl-GPC (20:4n6)* Fold Change AD+31/AD [1]: 1.17
- 1-myristoylglycerol (14:0) Fold Change AD+31/AD [1]: 0.94
- 1-oleoylglycerol (18:1) Fold Change AD+31/AD [1]: 1.17
- 1-palmitoyl-2-arachidonoyl-GPC (16:0/20:4n6) Fold Change AD+31/AD [1]: 1.19
- 1-palmitoyl-2-stearoyl-GPC (16:0/18:0) Fold Change AD+31/AD [1]: 1.23
- 1-stearoyl-GPE (18:0) Fold Change AD+31/AD [1]: 1.22
- 2-palmitoylglycerol (16:0) Fold Change AD+31/AD [1]: 1.22
- 3-acetylphenol sulfate Fold Change AD+31/AD [1]: 0.59
- 3-ethylphenylsulfate Fold Change AD+31/AD [1]: 2.39
- 3-hydroxy-3-methylglutarate Fold Change AD+31/AD [1]: 1.53
- 3-hydroxybutyrate (BHBA) Fold Change AD+31/AD [1]: 1.21
- 3-hydroxypyridine sulfate Fold Change AD+31/AD [1]: 1.07
- 3-indoxyl sulfate Fold Change AD+31/AD [1]: 1.15
- 4-hydroxyhippurate Fold Change AD+31/AD [1]: 0.73
- 4-hydroxyphenylpyruvate Fold Change AD+31/AD [1]: 1.05
- 5-hydroxyindoleacetate Fold Change AD+31/AD [1]: 1.01
- 5-oxoproline Fold Change AD+31/AD [1]: 1.02
- 7-ketodeoxycholate Fold Change AD+31/AD [1]: 0.18
- 9,10-DiHOME Fold Change AD+31/AD [1]: 0.99
- 10-heptadecenoate (17:1n7) Fold Change AD+31/AD [1]: 0.84
- 10-nonadecenoate (19:1n9) Fold Change AD+31/AD [1]: 0.87
- 10-undecenoate (11:1n1) Fold Change AD+31/AD [1]: 0.41
- 15-methylpalmitate Fold Change AD+31/AD [1]: 0.68
- 17-methylstearate Fold Change AD+31/AD [1]: 0.84
- N2-acetyllysine Fold Change AD+31/AD [1]: 1.12
- N-acetyl-3-methylhistidine* Fold Change AD+31/AD [1]: 0.86
- N-acetylmethionine Fold Change AD+31/AD [1]: 1.14
- N-acetylphenylalanine Fold Change AD+31/AD [1]: 1.1
- N-acetylserine Fold Change AD+31/AD [1]: 1.11
- N-carbamoylaspartate Fold Change AD+31/AD [1]: 1.97
- N-delta-acetylornithine Fold Change AD+31/AD [1]: 1.22
- N-palmitoyl-sphinganine (d18:0/16:0) Fold Change AD+31/AD [1]: 1.49
- N-stearoyl-sphingosine (d18:1/18:0)* Fold Change AD+31/AD [1]: 1.5
- acetylcarnitine Fold Change AD+31/AD [1]: 0.97
- alpha-tocopherol Fold Change AD+31/AD [1]: 1.29
- arabonate/xylonate Fold Change AD+31/AD [1]: 1.47
- asparagine Fold Change AD+31/AD [1]: 0.97
- beta-muricholate Fold Change AD+31/AD [1]: 0.41
- caffeic acid sulfate Fold Change AD+31/AD [1]: 1.19
- carnosine Fold Change AD+31/AD [1]: 0.68
- chenodeoxycholate Fold Change AD+31/AD [1]: 0.26
- choline phosphate Fold Change AD+31/AD [1]: 1.11
- creatine Fold Change AD+31/AD [1]: 1.02
- dihydroorotate Fold Change AD+31/AD [1]: 1.19
- dopamine sulfate (2) Fold Change AD+31/AD [1]: 2.01
- equol glucuronide Fold Change AD+31/AD [1]: 0.22
- ergothioneine Fold Change AD+31/AD [1]: 0.44
- erythritol Fold Change AD+31/AD [1]: 1.1
- erythronate* Fold Change AD+31/AD [1]: 1.14
- gamma-glutamylglutamate Fold Change AD+31/AD [1]: 0.97
- gamma-glutamylglutamine Fold Change AD+31/AD [1]: 0.99
- gamma-glutamylleucine Fold Change AD+31/AD [1]: 1.02
- gamma-glutamylmethionine Fold Change AD+31/AD [1]: 1.04
- gamma-glutamylphenylalanine Fold Change AD+31/AD [1]: 0.97
- gamma-glutamylthreonine Fold Change AD+31/AD [1]: 1.03
- gamma-glutamyltryptophan Fold Change AD+31/AD [1]: 0.78
- gamma-glutamyltyrosine Fold Change AD+31/AD [1]: 0.92
- glucuronate Fold Change AD+31/AD [1]: 1.18
- glutamate Fold Change AD+31/AD [1]: 0.99
- glutathione, oxidized (GSSG) Fold Change AD+31/AD [1]: 1.46
- glycosyl-N-palmitoyl-sphingosine (d18:1/16:0) Fold Change AD+31/AD [1]: 1.29
- glycosyl-N-stearoyl-sphingosine (d18:1/18:0) Fold Change AD+31/AD [1]: 1.42
- gulonate* Fold Change AD+31/AD [1]: 1.59
- hexanoylglycine Fold Change AD+31/AD [1]: 1.03
- indoleacetylglycine Fold Change AD+31/AD [1]: 0.89
- isobutyrylcarnitine Fold Change AD+31/AD [1]: 2.26
- linoleate (18:2n6) Fold Change AD+31/AD [1]: 0.98
- margarate (17:0) Fold Change AD+31/AD [1]: 0.9
- methionine sulfoxide Fold Change AD+31/AD [1]: 1.26
- methylmalonate (MMA) Fold Change AD+31/AD [1]: 1.15
- o-cresol sulfate Fold Change AD+31/AD [1]: 1.63
- oleoylcarnitine Fold Change AD+31/AD [1]: 0.94
- palmitoleoylcarnitine* Fold Change AD+31/AD [1]: 0.97
- palmitoyl dihydrosphingomyelin (d18:0/16:0)* Fold Change AD+31/AD [1]: 1.32
- palmitoyl sphingomyelin (d18:1/16:0) Fold Change AD+31/AD [1]: 1.22
- palmitoyl-palmitoyl-glycerol (16:0/16:0) [1]* Fold Change AD+31/AD [1]: 1.17
- pentadecanoate (15:0) Fold Change AD+31/AD [1]: 0.95
- phenol sulfate Fold Change AD+31/AD [1]: 1.03
- phenylpropionylglycine Fold Change AD+31/AD [1]: 2.89
- phosphoethanolamine Fold Change AD+31/AD [1]: 1.05
- pyridoxal Fold Change AD+31/AD [1]: 1.22
- pyridoxate Fold Change AD+31/AD [1]: 1.49
- pyruvate Fold Change AD+31/AD [1]: 1.04
- ribonate Fold Change AD+31/AD [1]: 1.53
- sphinganine-1-phosphate Fold Change AD+31/AD [1]: 1.45
- sphingosine Fold Change AD+31/AD [1]: 1.35
- stearidonate (18:4n3) Fold Change AD+31/AD [1]: 0.87
- suberate (octanedioate) Fold Change AD+31/AD [1]: 1.33
- sucrose Fold Change AD+31/AD [1]: 2.83
- tartronate (hydroxymalonate) Fold Change AD+31/AD [1]: 0.99
- taurine Fold Change AD+31/AD [1]: 0.91
- threonine Fold Change AD+31/AD [1]: 1.08
- tryptophan Fold Change AD+31/AD [1]: 0.91
- ursodeoxycholate Fold Change AD+31/AD [1]: 0.23
- 1,2-dipalmitoyl-GPC (16:0/16:0) Fold Change C+31/C [2]: 1.26
- 1-arachidonoyl-GPC (20:4n6)* Fold Change C+31/C [2]: 1.04
- 1-myristoylglycerol (14:0) Fold Change C+31/C [2]: 0.59
- 1-oleoylglycerol (18:1) Fold Change C+31/C [2]: 0.64
- 1-palmitoyl-2-arachidonoyl-GPC (16:0/20:4n6) Fold Change C+31/C [2]: 1.11
- 1-palmitoyl-2-stearoyl-GPC (16:0/18:0) Fold Change C+31/C [2]: 1.1
- 1-stearoyl-GPE (18:0) Fold Change C+31/C [2]: 1.01
- 2-palmitoylglycerol (16:0) Fold Change C+31/C [2]: 0.79
- 3-acetylphenol sulfate Fold Change C+31/C [2]: 0.21
- 3-ethylphenylsulfate Fold Change C+31/C [2]: 2.27
- 3-hydroxy-3-methylglutarate Fold Change C+31/C [2]: 0.99
- 3-hydroxybutyrate (BHBA) Fold Change C+31/C [2]: 1.83
- 3-hydroxypyridine sulfate Fold Change C+31/C [2]: 0.72
- 3-indoxyl sulfate Fold Change C+31/C [2]: 0.63
- 4-hydroxyhippurate Fold Change C+31/C [2]: 0.42
- 4-hydroxyphenylpyruvate Fold Change C+31/C [2]: 1.65
- 5-hydroxyindoleacetate Fold Change C+31/C [2]: 0.83
- 5-oxoproline Fold Change C+31/C [2]: 1.27
- 7-ketodeoxycholate Fold Change C+31/C [2]: 1.33
- 9,10-DiHOME Fold Change C+31/C [2]: 0.65
- 10-heptadecenoate (17:1n7) Fold Change C+31/C [2]: 0.51
- 10-nonadecenoate (19:1n9) Fold Change C+31/C [2]: 0.6
- 10-undecenoate (11:1n1) Fold Change C+31/C [2]: 0.75
- 15-methylpalmitate Fold Change C+31/C [2]: 0.52
- 17-methylstearate Fold Change C+31/C [2]: 0.62
- N2-acetyllysine Fold Change C+31/C [2]: 0.71
- N-acetyl-3-methylhistidine* Fold Change C+31/C [2]: 0.84
- N-acetylmethionine Fold Change C+31/C [2]: 1.6
- N-acetylphenylalanine Fold Change C+31/C [2]: 1.41
- N-acetylserine Fold Change C+31/C [2]: 1.09
- N-carbamoylaspartate Fold Change C+31/C [2]: 0.54
- N-delta-acetylornithine Fold Change C+31/C [2]: 1.42
- N-palmitoyl-sphinganine (d18:0/16:0) Fold Change C+31/C [2]: 1.08
- N-stearoyl-sphingosine (d18:1/18:0)* Fold Change C+31/C [2]: 1.12
- acetylcarnitine Fold Change C+31/C [2]: 1.65
- alpha-tocopherol Fold Change C+31/C [2]: 1.05
- arabonate/xylonate Fold Change C+31/C [2]: 0.83
- asparagine Fold Change C+31/C [2]: 1.48
- beta-muricholate Fold Change C+31/C [2]: 1.78
- caffeic acid sulfate Fold Change C+31/C [2]: 2.12
- carnosine Fold Change C+31/C [2]: 0.62
- chenodeoxycholate Fold Change C+31/C [2]: 0.67
- choline phosphate Fold Change C+31/C [2]: 1.53
- creatine Fold Change C+31/C [2]: 1.23
- dihydroorotate Fold Change C+31/C [2]: 2.98
- dopamine sulfate (2) Fold Change C+31/C [2]: 0.94
- equol glucuronide Fold Change C+31/C [2]: 0.18
- ergothioneine Fold Change C+31/C [2]: 0.68
- erythritol Fold Change C+31/C [2]: 1.06
- erythronate* Fold Change C+31/C [2]: 1.02
- gamma-glutamylglutamate Fold Change C+31/C [2]: 2.69
- gamma-glutamylglutamine Fold Change C+31/C [2]: 1.94
- gamma-glutamylleucine Fold Change C+31/C [2]: 1.86
- gamma-glutamylmethionine Fold Change C+31/C [2]: 2.24
- gamma-glutamylphenylalanine Fold Change C+31/C [2]: 1.84
- gamma-glutamylthreonine Fold Change C+31/C [2]: 2.07
- gamma-glutamyltryptophan Fold Change C+31/C [2]: 1.81
- gamma-glutamyltyrosine Fold Change C+31/C [2]: 2.33
- glucuronate Fold Change C+31/C [2]: 1.04
- glutamate Fold Change C+31/C [2]: 1.71
- glutathione, oxidized (GSSG) Fold Change C+31/C [2]: 2.09
- glycosyl-N-palmitoyl-sphingosine (d18:1/16:0) Fold Change C+31/C [2]: 1.25
- glycosyl-N-stearoyl-sphingosine (d18:1/18:0) Fold Change C+31/C [2]: 0.76
- gulonate* Fold Change C+31/C [2]: 1.01
- hexanoylglycine Fold Change C+31/C [2]: 2.77
- indoleacetylglycine Fold Change C+31/C [2]: 0.57
- isobutyrylcarnitine Fold Change C+31/C [2]: 5.46
- linoleate (18:2n6) Fold Change C+31/C [2]: 0.67
- margarate (17:0) Fold Change C+31/C [2]: 0.6
- methionine sulfoxide Fold Change C+31/C [2]: 1.52
- methylmalonate (MMA) Fold Change C+31/C [2]: 0.87
- o-cresol sulfate Fold Change C+31/C [2]: 0.93
- oleoylcarnitine Fold Change C+31/C [2]: 1.42
- palmitoleoylcarnitine* Fold Change C+31/C [2]: 1.81
- palmitoyl dihydrosphingomyelin (d18:0/16:0)* Fold Change C+31/C [2]: 1.09
- palmitoyl sphingomyelin (d18:1/16:0) Fold Change C+31/C [2]: 1.05
- palmitoyl-palmitoyl-glycerol (16:0/16:0) [1]* Fold Change C+31/C [2]: 0.51
- pentadecanoate (15:0) Fold Change C+31/C [2]: 0.71
- phenol sulfate Fold Change C+31/C [2]: 0.59
- phenylpropionylglycine Fold Change C+31/C [2]: 3.88
- phosphoethanolamine Fold Change C+31/C [2]: 1.64
- pyridoxal Fold Change C+31/C [2]: 1.54
- pyridoxate Fold Change C+31/C [2]: 1.33
- pyruvate Fold Change C+31/C [2]: 1.2
- ribonate Fold Change C+31/C [2]: 1.07
- sphinganine-1-phosphate Fold Change C+31/C [2]: 2.52
- sphingosine Fold Change C+31/C [2]: 1.14
- stearidonate (18:4n3) Fold Change C+31/C [2]: 0.65
- suberate (octanedioate) Fold Change C+31/C [2]: 1.17
- sucrose Fold Change C+31/C [2]: 2.7
- tartronate (hydroxymalonate) Fold Change C+31/C [2]: 1.47
- taurine Fold Change C+31/C [2]: 1.26
- threonine Fold Change C+31/C [2]: 1.42
- tryptophan Fold Change C+31/C [2]: 1.12
- ursodeoxycholate Fold Change C+31/C [2]: 0.49
